Target: P. falciparum apicoplast DNA polymerase (Pf-apPOL) (Plasmodium falciparum, UniProt Q8ILY1)
Assay: Fluorescence-based high-throughput DNA polymerase assay (molecular beacon), primary screen and dose-response
Format: biochemical
Conditions: for DNA Pol: 90 min, 10 µM; for % inhibition apPOL 180' 2.5 / % inhibition apPOL 180' 5 / % inhibition apPOL 180' 10 / % inhibition apPOL 180' 20 / % inhibition apPOL 180' 40 / % inhibition apPOL 180' 80: read at 180'
How it was run: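 Single-point screening used 10 µM compound with 20 nM polymerase, 20 nM hairpin substrate and 6 µM dNTPs for 90 min at 25 °C. Confirmatory titrations (2.5–80 µM) followed fluorescence at three times, and IC50 was derived from a fit including a cooperativity term n.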

Chain of P. falciparum apicoplast DNA polymerase (Pf-apPOL) (Q8ILY1 entry or part of it): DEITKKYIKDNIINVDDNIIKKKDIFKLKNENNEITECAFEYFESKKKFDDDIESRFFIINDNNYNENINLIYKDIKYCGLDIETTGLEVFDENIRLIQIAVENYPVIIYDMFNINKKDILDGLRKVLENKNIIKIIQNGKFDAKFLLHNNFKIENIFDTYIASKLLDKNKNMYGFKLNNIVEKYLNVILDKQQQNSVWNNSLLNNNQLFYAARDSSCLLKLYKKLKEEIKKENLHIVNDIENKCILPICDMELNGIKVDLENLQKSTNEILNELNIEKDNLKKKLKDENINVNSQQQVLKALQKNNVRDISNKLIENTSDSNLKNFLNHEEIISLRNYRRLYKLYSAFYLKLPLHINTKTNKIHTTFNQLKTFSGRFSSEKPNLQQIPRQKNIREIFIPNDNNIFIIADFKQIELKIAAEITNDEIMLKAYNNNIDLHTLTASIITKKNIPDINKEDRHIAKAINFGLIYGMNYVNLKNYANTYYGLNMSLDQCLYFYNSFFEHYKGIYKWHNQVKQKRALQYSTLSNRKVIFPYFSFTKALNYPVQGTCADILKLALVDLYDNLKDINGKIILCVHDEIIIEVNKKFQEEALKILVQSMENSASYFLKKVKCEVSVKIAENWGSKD

Compound: COc1cccc(Oc2c(C(F)(F)F)oc3cc(OC(=O)N(C)C)ccc3c2=O)c1 [Molecule 52, COc1cccc(c1)Oc1c(=O)c2ccc(cc2oc1C(F)(F)F)OC(=O)N(C)C]
- DNA Pol ('DNA Pol' of the 186 hits list (primary screen value)): 61
- DNA Pol (DNA Pol (primary screen value)): 61
- % inhibition Apo pol 10' (DRC-1, concentration 2.5): 6.553%
- % inhibition Apo pol 10' (DRC-1, concentration 5): 12.9509%
- % inhibition Apo pol 10' (DRC-1, concentration 10): 26.9326%
- % inhibition Apo pol 10' (DRC-1, concentration 20): 35.5271%
- % inhibition Apo pol 10' (DRC-1, concentration 40): 51.7019%
- % inhibition Apo pol 10' (DRC-1, concentration 80): 57.2765%
- % inhibition Apol 90' (DRC-1, concentration 2.5): 11.9844%
- % inhibition Apol 90' (DRC-1, concentration 5): 19.0717%
- % inhibition Apol 90' (DRC-1, concentration 10): 34.8904%
- % inhibition Apol 90' (DRC-1, concentration 20): 41.7615%
- % inhibition Apol 90' (DRC-1, concentration 40): 58.6612%
- % inhibition Apol 90' (DRC-1, concentration 80): 63.3235%
- % inhibition apPOL 180' (DRC-1, concentration 2.5): 22.4742%
- % inhibition apPOL 180' (DRC-1, concentration 5): 28.9407%
- % inhibition apPOL 180' (DRC-1, concentration 10): 43.333%
- % inhibition apPOL 180' (DRC-1, concentration 20): 44.974%
- % inhibition apPOL 180' (DRC-1, concentration 40): 65.9617%
- % inhibition apPOL 180' (DRC-1, concentration 80): 64.6101%
- % inhibition Apo pol 5' (DRC-2, concentration 2.5): 15%
- % inhibition Apo pol 5' (DRC-2, concentration 5): 18%
- % inhibition Apo pol 5' (DRC-2, concentration 10): 27%
- % inhibition Apo pol 5' (DRC-2, concentration 20): 32%
- % inhibition Apo pol 5' (DRC-2, concentration 40): 40%
- % inhibition Apo pol 5' (DRC-2, concentration 80): 42%
- % inhibition Apol 40' (DRC-2, concentration 2.5): 14%
- % inhibition Apol 40' (DRC-2, concentration 5): 14%
- % inhibition Apol 40' (DRC-2, concentration 10): 33%
- % inhibition Apol 40' (DRC-2, concentration 20): 41%
- % inhibition Apol 40' (DRC-2, concentration 40): 50%
- % inhibition Apol 40' (DRC-2, concentration 80): 56%
- % inhibition ApPOL 90' (DRC-2, concentration 2.5): 14%
- % inhibition ApPOL 90' (DRC-2, concentration 5): 8%
- % inhibition ApPOL 90' (DRC-2, concentration 10): 33%
- % inhibition ApPOL 90' (DRC-2, concentration 20): 41%
- % inhibition ApPOL 90' (DRC-2, concentration 40): 51%
- % inhibition ApPOL 90' (DRC-2, concentration 80): 58%
- % inhibition apPOL 180' (DRC-2, concentration 2.5): 6.57%
- % inhibition apPOL 180' (DRC-2, concentration 5): -58%
- % inhibition apPOL 180' (DRC-2, concentration 10): 24%
- % inhibition apPOL 180' (DRC-2, concentration 20): 33%
- % inhibition apPOL 180' (DRC-2, concentration 40): 45%
- % inhibition apPOL 180' (DRC-2, concentration 80): 54%

Compound: CCCc1ccc(Oc2coc3cc(OC)ccc3c2=O)cc1 [KU0193249]
- DNA Pol (186 hits, DNA Pol (screen value), unit not given): 73
- DNA Pol ('DNA Pol' (screen value), unit not given): 73
- % inhibition Apo pol 10' 2.5 (DRC-1, read at 10', concentration 2.5): 7.919%
- % inhibition Apo pol 10' 5 (DRC-1, read at 10', concentration 5): 6.719%
- % inhibition Apo pol 10' 10 (DRC-1, read at 10', concentration 10): 11.6444%
- % inhibition Apo pol 10' 20 (DRC-1, read at 10', concentration 20): 12.8685%
- % inhibition Apo pol 10' 40 (DRC-1, read at 10', concentration 40): 28.2048%
- % inhibition Apo pol 10' 80 (DRC-1, read at 10', concentration 80): 56.0479%
- % inhibition Apol 90' 2.5 (DRC-1, read at 90', concentration 2.5): 14.2398%
- % inhibition Apol 90' 5 (DRC-1, read at 90', concentration 5): 11.6391%
- % inhibition Apol 90' 10 (DRC-1, read at 90', concentration 10): 17.4321%
- % inhibition Apol 90' 20 (DRC-1, read at 90', concentration 20): 14.1885%
- % inhibition Apol 90' 40 (DRC-1, read at 90', concentration 40): 28.8567%
- % inhibition Apol 90' 80 (DRC-1, read at 90', concentration 80): 54.3218%
- % inhibition apPOL 180' 2.5 (DRC-1, concentration 2.5): 21.2124%
- % inhibition apPOL 180' 5 (DRC-1, concentration 5): 19.9497%
- % inhibition apPOL 180' 10 (DRC-1, concentration 10): 25.9143%
- % inhibition apPOL 180' 20 (DRC-1, concentration 20): 21.3211%
- % inhibition apPOL 180' 40 (DRC-1, concentration 40): 35.4665%
- % inhibition apPOL 180' 80 (DRC-1, concentration 80): 56.5719%
- % inhibition Apo pol 5' (DRC-2, concentration 2.5): 8%
- % inhibition Apo pol 5' (DRC-2, concentration 5): 12%
- % inhibition Apo pol 5' (DRC-2, concentration 20): 17%
- % inhibition Apo pol 5' (DRC-2, concentration 40): 20%
- % inhibition Apol 40' (DRC-2, concentration 10): 17%
- % inhibition Apol 40' (DRC-2, concentration 20): 20%
- % inhibition Apol 40' (DRC-2, concentration 40): 25%
- % inhibition ApPOL 90' (DRC-2, concentration 10): 17%
- % inhibition ApPOL 90' (DRC-2, concentration 20): 22%
- % inhibition ApPOL 90' (DRC-2, concentration 40): 25%
- % inhibition apPOL 180' (DRC-2, concentration 5): 8%
- % inhibition apPOL 180' (DRC-2, concentration 10): 12%
- % inhibition apPOL 180' (DRC-2, concentration 40): 22%
- % inhibition Apo pol 5' 2.5 (DRC-2, read at 5', concentration 2.5): 8%
- % inhibition Apo pol 5' 5 (DRC-2, read at 5', concentration 5): 12%
- % inhibition Apo pol 5' 10 (DRC-2, read at 5', concentration 10): 13%
- % inhibition Apo pol 5' 20 (DRC-2, read at 5', concentration 20): 17%
- % inhibition Apo pol 5' 40 (DRC-2, read at 5', concentration 40): 20%
- % inhibition Apo pol 5' 80 (DRC-2, read at 5', concentration 80): 36%
- % inhibition Apol 40' 2.5 (DRC-2, read at 40', concentration 2.5): 6.51%
- % inhibition Apol 40' 5 (DRC-2, read at 40', concentration 5): 15%
- % inhibition Apol 40' 10 (DRC-2, read at 40', concentration 10): 17%
- % inhibition Apol 40' 20 (DRC-2, read at 40', concentration 20): 20%
- % inhibition Apol 40' 40 (DRC-2, read at 40', concentration 40): 25%
- % inhibition Apol 40' 80 (DRC-2, read at 40', concentration 80): 47%
- % inhibition ApPOL 90' 2.5 (DRC-2, read at 90', concentration 2.5): 4.24%
- % inhibition ApPOL 90' 5 (DRC-2, read at 90', concentration 5): 14%
- % inhibition ApPOL 90' 10 (DRC-2, read at 90', concentration 10): 17%
- % inhibition ApPOL 90' 20 (DRC-2, read at 90', concentration 20): 22%
- % inhibition ApPOL 90' 40 (DRC-2, read at 90', concentration 40): 25%
- % inhibition ApPOL 90' 80 (DRC-2, read at 90', concentration 80): 51%
- % inhibition apPOL 180' 2.5 (DRC-2, concentration 2.5): -0.201%
- % inhibition apPOL 180' 5 (DRC-2, concentration 5): 8%
- % inhibition apPOL 180' 10 (DRC-2, concentration 10): 12%
- % inhibition apPOL 180' 20 (DRC-2, concentration 20): 18%
- % inhibition apPOL 180' 40 (DRC-2, concentration 40): 22%
- % inhibition apPOL 180' 80 (DRC-2, concentration 80): 52%

Reference: paper PMC9090415, “Discovery of small molecule inhibitors of Plasmodium falciparum apicoplast DNA polymerase” (Journal of Enzyme Inhibition and Medicinal Chemistry, 2022)
